Test results: article PMC6271933, “Evaluation of the Toxicity of 5-Aryl-2-Aminoimidazole-Based Biofilm Inhibitors against Eukaryotic Cell Lines, Bone Cells and the Nematode Caenorhabditis elegans” (Molecules, 2014)
Values joined by “and” are separate entries in the source; they are usually repeats but may differ in a detail not shown here. Equal entries are not always repeated. “Also recorded” adds a separate entry of the source.

Legend:
[1] = test system: HMO2, HepG2, HeLa and mouse lymphoma cells; design: method as in PMID 12193030, PMID 15165143, PMID 17822294; details: including HMO2, HepG2, HeLa and mouse lymphoma cells; cited from earlier work
Caenorhabditis elegans = test system: Caenorhabditis elegans; design: method as in PMID 22292413; details: cited from earlier work
HaCaT keratinocyte cells = test system: HaCaT keratinocyte cells; design: method as in PMID 22292413; details: cited from earlier work
human T-lymphocyte (CEM) = assay: Cytostatic activity against tumor cell lines (cell number by Coulter counter); format: cell-based; details: 72 h, concentration inhibiting cell proliferation by 50%, three days incubation, mean of three repeats
Method: (§1) The IC50 was defined as the compound concentration required to inhibit cell proliferation by 50%. The therapeutic index (TI) was calculated as the ratio of the compound concentration producing toxicity (IC50) to the concentration needed to exert the desired ‘therapeutic’ effect on biofilms of Salmonella and Pseudomonas, indicated by the BIC50 (dose needed to prevent biofilm formation by 50%). The higher the therapeutic index, the broader the safety window of the compound.
(§2) Murine leukemia (L1210), human T-lymphocyte (CEM) and human cervix carcinoma (HeLa) were suspended at 300,000–500,000 cells/mL of culture medium, and 100 µL of a cell suspension was added to 100 µL of an appropriate dilution of the test compounds in 200 µL-wells of 96-well microtiter plates. After incubation at 37 °C for two (L1210), three (CEM) or four (HeLa) days, the cell number was determined using a Coulter counter. The IC50 was defined as the compound concentration required to inhibit cell proliferation by 50%.

[2] = test system: human cervix carcinoma (HeLa); assay: as above; format: cell-based; details: 96 h, concentration inhibiting cell proliferation by 50%, four days incubation, mean of three repeats
Method: as §1, §2

murine leukemia (L1210) = assay: as above; format: cell-based; details: Mus musculus, L1210, 48 h; concentration inhibiting cell proliferation by 50%; two days incubation; mean of three repeats
Method: as §1, §2

C. elegans = format: in vivo, Caenorhabditis elegans; details: for C. elegans % survival at 25 µM: after 7 days relative to viability at day 0, mean of at least two repeats
Method: Eggs of a double mutant (glp-4Dsek-1D) of C. elegans were grown on NGM/OP50 agar plates (NGM agar plates on the surface inoculated with 100 µL of an overnight culture of OP50 Escherichia coli and stored at 4 °C until use) at 25 °C until all nematodes had reached the L4 stage. Worms were collected and washed with M9 buffer (3 g/L KH2PO4, 6 g/L Na2HPO4, 5 g/L NaCl, 1 mM MgSO4). For toxicity testing, 40 to 50 worms were suspended in 250 μL M9 (supplemented with 10 µg/mL cholesterol, 75 µg/mL ampicillin and 100 µg/mL kanamycin) buffer in each well of 24-well microtiter plates, in the presence or absence (0.5% DMSO control) of 25, 100 or 200 µM of the test compounds and grown for 7 days at 25 °C. The percentage survival of the worms in the presence or absence of anti-biofilm compounds was calculated after 7 days relative to their viability at day 0.

[3] = test system: human bone marrow-derived mesenchymal stem cells (MSC); assay: Cytotoxicity against bone cells, trypan blue staining; format: cell-based; details: for effect on proliferation and viability: after 48h and after 6 days of exposure
Method: (§3) The cytotoxicity of the compounds was measured on cell cultures of two cell types represented in bone tissue, namely human osteoblasts (OB) and human bone marrow-derived mesenchymal stem cells (MSC). These tests were conducted according to ISO 10993-5 cytotoxicity standard. The cells were seeded in a 96-well plate at a density of 5000 cells/cm^2 in cell culture media (Advanced DMEM, 10% FBS, 1× GlutaMAX, 0.05 mg/mL gentamicin) and allowed to attach overnight. […]
(§4) Trypan blue staining: the medium was removed from the wells, and 1/3 trypan blue in DMEM medium was added to the cells, incubated for 3 min, after which trypan blue was removed and DMEM medium was added to the wells. In each of four wells, two microscopy fields were counted for viable (transparent) and dead (blue) cells.

human osteoblasts (OB) [4] = assay: as above; format: cell-based; details: for effect on proliferation and viability: after 48h and after 6 days of exposure
Method: as §3, §4

[5] = test system: human bone marrow-derived mesenchymal stem cells (MSC); assay: Metabolic activity of bone cells, MTT staining; format: cell-based; details: 12.5 µM, 6 days exposure, MTT staining (results not shown)
Method: (§5) The cytotoxicity of the compounds was measured on cell cultures of two cell types represented in bone tissue, namely human osteoblasts (OB) and human bone marrow-derived mesenchymal stem cells (MSC). These tests were conducted according to ISO 10993-5 cytotoxicity standard. The cells were seeded in a 96-well plate at a density of 5000 cells/cm^2 in cell culture media (Advanced DMEM, 10% FBS, 1× GlutaMAX, 0.05 mg/mL gentamicin) and allowed to attach overnight. The next day the test compounds (12.5 μM) and controls were added to the cells (negative controls were cell culture medium and cell culture medium with 0.5% DMSO background, positive control was 0.05% phenol to show a cytotoxic effect) and incubated for 2h, 48h and 6 days and at each time-point the numbers of viable and dead cells were determined by trypan blue staining, and the metabolic activity was determined with MTT staining.
(§6) MTT: the medium was removed from the wells and 100 μL of medium, supplemented with 10% serum and 0.5 mg/mL MTT was added to the cells. The cells were incubated overnight at 37 °C and 5% CO2. The next day the medium with MTT was removed and 100 μL acidic isopropanol was added. The cells were then centrifuged at 2300 g and 50 μL of the supernatant was transferred to a new 96-well plate. The absorbance was measured at 570 nm and the background was measured at 660 nm. Four wells per condition were examined.

human osteoblasts (OB) [6] = assay: Metabolic activity of bone cells, MTT staining; format: cell-based; details: 12.5 µM, 6 days exposure, MTT staining (results not shown)
Method: as §5, §6

S. Typhimurium biofilm = details: concentration preventing biofilm formation (at 25 °C) by 50%; as previously reported ref 13, 14, 15, 16; read-out: BIC50 S. Typhimurium; cited from earlier work
P. aeruginosa biofilm = details: concentration preventing biofilm formation (at 25 °C) by 50%; as previously reported ref 13, 14, 15, 16; read-out: BIC50 P. aeruginosa; cited from earlier work
[7] = test system: mesenchymal stem cells (MSC); assay: Calcium assay for osteogenic differentiation potential; format: cell-based, human; details: 12.5 µM, 5 weeks (Figure 6) or 3 weeks (methods) of exposure
Method: (§7) MSC and OB were cultured in osteogenic medium for 3 and 5 weeks, respectively. The experimental groups included a positive solvent control (osteogenic medium with 0.5% DMSO background), a negative control (medium without osteogenic supplements) and treated samples (osteogenic medium, 0.5% DMSO background and 12.5 µM of test compound). Cell cultures were extracted by 5% trichloroacetic acid (500 μL per sample). O-Cresolphtalein complex was added (Calcium CPC LiquiColor Test®; Stanbio Laboratory, Boerne, TX, USA), and the calcium content was determined spectrophotometrically at 550 nm.
(§8) To determine the DNA content, cells were washed with PBS, and 200 μL of digestion buffer (10 mM Tris, 1 mM EDTA, 0.1% Triton X-100, 0.1 mg/mL proteinase K) was added. Samples were incubated in digestion buffer overnight at 56 °C. The supernatants were drawn off and PicoGreen® dye (Molecular Probes, Eugene, OR, USA) was added to the samples in 1:1 ratio and read in a fluorescent plate reader (excitation 485 nm and emission 528 nm). DNA values were used to normalize the calcium content. Four wells per condition were examined, and two samples from each well were taken for each assay.

osteoblasts (OB) = assay: as above; format: cell-based, human; details: 12.5 µM, 3 weeks (Figure 6) or 5 weeks (methods) of exposure
Method: as §7, §8

[8] = 12.5 µM, 48h exposure, trypan blue

## COc1ccc(Cc2nc(N)n(C)c2Cc2cc(O)c(OC)c(OC)c2)cc1 [2e, naamine C]
[1]
  cytotoxicity to a variety of cell lines: cytotoxic

## COc1ccc(Cc2nc(N)n(C)c2Cc2cc(O)c(OC)c(O)c2)cc1 [2f, naamine E]
[1]
  cytotoxicity to a variety of cell lines: cytotoxic

## COc1ccc(Cc2nc(N)n(C)c2Cc2ccc(O)c(OC)c2)cc1 [2g, naamine F]
[1]
  cytotoxicity to a variety of cell lines: cytotoxic

## COc1ccc(Cc2[nH]c(=N)n(C)c2Cc2cc(OC)c(O)c(OC)c2)cc1 [2h, naamine G]
[1]
  cytotoxicity to a variety of cell lines: cytotoxic

## COc1ccc(Cn2cc(Cc3ccc(OC)c(OC)c3)nc2/N=C2/NC(=O)N(C)C2=O)cc1 [2i, isonaamidine E]
[1]
  cytotoxicity to a variety of cell lines: cytotoxic

## COc1ccc(Cc2[nH]/c(=N\C3=NC(=O)N(C)C3=O)n(C)c2Cc2cc(OC)c(O)c(OC)c2)cc1 [2k, naamidine H]
[1]
  cytotoxicity to a variety of cell lines: cytotoxic

## C/N=C1N=C(/N=c2\[nH]c(Cc3ccc(OC)cc3)c(Cc3cc(OC)c(O)c(OC)c3)n2C)C(=O)N\1C [2l, naamidine I]
[1]
  cytotoxicity to a variety of cell lines: cytotoxic

## Cn1c(C(=O)NCCCc2c[nH]c(N)n2)cc(Br)c1Br [2p]
Caenorhabditis elegans
  toxicity against Caenorhabditis elegans: lack toxicity
HaCaT keratinocyte cells
  effect on HaCaT keratinocyte cells: differential effect

## CCCCCCCCCCCCCNC(=O)CCCc1c[nH]c(N)n1 [2q]
Caenorhabditis elegans
  toxicity against Caenorhabditis elegans: lack toxicity
HaCaT keratinocyte cells
  effect on HaCaT keratinocyte cells: differential effect

## CCCCCCCCn1c(-c2ccc(Cl)cc2)cnc1N [compound 7]
Human T-lymphocyte (CEM)
  IC50: 357 µM
[2]
  IC50: 4.5 µM
Murine leukemia (L1210)
  IC50: 3.9 µM
C. elegans
  C. elegans % survival at 25 µM: 86.6%
C. elegans; 7 days of exposure
  effect on C. elegans survival at 100 µM: none of the compounds significantly affect
C. elegans; 200 µM, 7 days of exposure
  inhibition of C. elegans survival at 200 µM: more than 50%
[3]; [8]
  reduction of proliferation as compared to the solvent control: > 70%
  reduction of viability as compared to the solvent control: > 70%
Human osteoblasts (OB) [4]; [8]
  reduction of proliferation as compared to the solvent control: > 70%
  reduction of viability as compared to the solvent control: > 70%
[5]
  reduction of metabolic activity as compared to the untreated controls: > 80%
Human osteoblasts (OB) [6]
  reduction of metabolic activity as compared to the untreated controls: > 80%
S. Typhimurium biofilm
  IC50: 5.9 µM
P. aeruginosa biofilm
  IC50: 4 µM

## CC(C)CNc1ncc(-c2ccc(Cl)cc2)[nH]1 [compound 22]
Human T-lymphocyte (CEM)
  IC50: 297 µM
[2]
  IC50: 172 µM
Murine leukemia (L1210)
  IC50: 336 µM
C. elegans
  C. elegans % survival at 25 µM: 97.6%
C. elegans; 7 days of exposure
  effect on C. elegans survival at 100 µM: none of the compounds significantly affect
C. elegans; 200 µM, 7 days of exposure
  effect on C. elegans survival at 200 µM: do not significantly affect survival
[3]; 12.5 µM, trypan blue
  effect on proliferation and viability: do not or only slightly reduce
[3]
  survival of cells after 4 weeks of exposure: allow survival
Human osteoblasts (OB) [4]; 12.5 µM, trypan blue
  effect on proliferation and viability: do not or only slightly reduce
Human osteoblasts (OB) [4]
  survival of cells after 4 weeks of exposure: allow survival
[5]
  effect on metabolic activity: slightly enhance
Human osteoblasts (OB) [6]
  effect on metabolic activity: slightly enhance
[7]
  calcium deposition compared to the solvent control (osteogenic differentiation potential): none of the compounds does negatively affect; also recorded: significantly (p < 0.05) induces
Osteoblasts (OB)
  calcium deposition compared to the solvent control (osteogenic differentiation potential): none of the compounds does negatively affect; also recorded: significantly (p < 0.05) induces
S. Typhimurium biofilm
  IC50: 2 µM
P. aeruginosa biofilm
  IC50: 0.9 µM

## CCCCNc1ncc(-c2ccc(Br)cc2)[nH]1 [compound 25]
Human T-lymphocyte (CEM)
  IC50: 493 µM
[2]
  IC50: 50.7 µM
Murine leukemia (L1210)
  IC50: 126 µM
C. elegans
  C. elegans % survival at 25 µM: 102.4%
C. elegans; 7 days of exposure
  effect on C. elegans survival at 100 µM: none of the compounds significantly affect
C. elegans; 200 µM, 7 days of exposure
  effect on C. elegans survival at 200 µM: do not significantly affect survival
[3]; 12.5 µM, trypan blue
  effect on proliferation and viability: do not or only slightly reduce
[3]
  survival of cells after 4 weeks of exposure: allow survival
Human osteoblasts (OB) [4]; 12.5 µM, trypan blue
  effect on proliferation and viability: do not or only slightly reduce
Human osteoblasts (OB) [4]
  survival of cells after 4 weeks of exposure: allow survival
[5]
  effect on metabolic activity: slightly enhance
Human osteoblasts (OB) [6]
  effect on metabolic activity: slightly enhance
[7]
  calcium deposition compared to the solvent control (osteogenic differentiation potential): none of the compounds does negatively affect; also recorded: significantly induces
Osteoblasts (OB)
  calcium deposition compared to the solvent control (osteogenic differentiation potential): none of the compounds does negatively affect
S. Typhimurium biofilm
  IC50: 7.1 µM
P. aeruginosa biofilm
  IC50: 9.8 µM

## Brc1ccc(-c2cnc(NCCCn3cc(C4CC4)nn3)[nH]2)cc1 [compound 40]
Human T-lymphocyte (CEM)
  IC50: 33.6 µM
[2]
  IC50: 67.1 µM
Murine leukemia (L1210)
  IC50: 43.9 µM
C. elegans
  C. elegans % survival at 25 µM: 82.6%
C. elegans; 7 days of exposure
  effect on C. elegans survival at 100 µM: none of the compounds significantly affect
C. elegans; 200 µM, 7 days of exposure
  effect on C. elegans survival at 200 µM: do not significantly affect survival
[3]; 12.5 µM, trypan blue
  effect on proliferation and viability: do not or only slightly reduce
[3]
  survival of cells after 4 weeks of exposure: allow survival
Human osteoblasts (OB) [4]; 12.5 µM, trypan blue
  effect on proliferation and viability: do not or only slightly reduce
Human osteoblasts (OB) [4]
  survival of cells after 4 weeks of exposure: allow survival
[5]
  effect on metabolic activity: slightly enhance
Human osteoblasts (OB) [6]
  effect on metabolic activity: slightly enhance
[7]
  calcium deposition compared to the solvent control (osteogenic differentiation potential): none of the compounds does negatively affect
Osteoblasts (OB)
  calcium deposition compared to the solvent control (osteogenic differentiation potential): none of the compounds does negatively affect
S. Typhimurium biofilm
  IC50: 2 µM
P. aeruginosa biofilm
  IC50: 72 µM and 71.6 µM
